How the values were obtained:
Test in all cases: relative viability (nuclei count vs DMSO), 5 days (fraction); higher = more cells survive
[1] = compound: C1COCCN1CC2=CC(=O)C(=CO2)OCCCCCSC3=C4C=CC(=CC4=NC=C3)C(F)(F)F [EHT 1864]
Outline: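 After an overnight hold at 37 °C, lung cancer cell lines in 1536-well plates were pinned with five library-drug doses (not always all listed), each √10 from the next, on vehicle-anchored plates. The cells stayed 5 days without fresh medium, then a one-step fix, permeabilisation and Hoechst stain preceded 4× imaging and MetaXpress nuclear counts. A plate passed only with control CV under 25% and at least one doubling. Viability is the median, over plates, of treated-well nuclei relative to vehicle-well nuclei.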

[2] = compound: C1COCCN1CC2=CC(=O)C(=CO2)OCCCCCSC3=C4C=CC(=CC4=NC=C3)C(F)(F)F [EHT 1864] + CC1(C)CCC(c2ccc(Cl)cc2)=C(CN2CCN(c3ccc(C(=O)NS(=O)(=O)c4ccc(N[C@H](CCN5CCOCC5)CSc5ccccc5)c(S(=O)(=O)C(F)(F)F)c4)cc3)CC2)C1 [Navitoclax] (partner 0.5 µM)
Outline: (§1)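 Values are medians from duplicate plates. Each reflects relative viability, defined as the nuclei count of treated wells over that of vehicle wells. Lung cancer cell lines in 1536-well plates were pin-tool dosed one day after seeding with one drug alone or with a fixed anchor-drug dose plus five library-drug doses (not always all listed) in √10 steps, then fixed, stained and imaged at 4× after 5 days.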

[3] = compound: C1COCCN1CC2=CC(=O)C(=CO2)OCCCCCSC3=C4C=CC(=CC4=NC=C3)C(F)(F)F [EHT 1864] + COc1cc2c(Oc3ccc(NC(=O)C4(C(=O)Nc5ccc(F)cc5)CC4)cc3F)ccnc2cc1OCCCN1CCOCC1 [Foretinib] (partner 0.25 µM)
Outline: as §1

[4] = compound: C1COCCN1CC2=CC(=O)C(=CO2)OCCCCCSC3=C4C=CC(=CC4=NC=C3)C(F)(F)F [EHT 1864] + CS(=O)(=O)CCNCc1ccc(-c2ccc3ncnc(Nc4ccc(OCc5cccc(F)c5)c(Cl)c4)c3c2)o1 [Lapatinib] (partner 2 µM)
Outline: as §1

[5] = compound: C1COCCN1CC2=CC(=O)C(=CO2)OCCCCCSC3=C4C=CC(=CC4=NC=C3)C(F)(F)F [EHT 1864] + CS(=O)(=O)N1CCN(Cc2cc3nc(-c4cccc5[nH]ncc45)nc(N4CCOCC4)c3s2)CC1 [Pictilisib] (partner 1 µM)
Outline: as §1

[6] = compound: C1COCCN1CC2=CC(=O)C(=CO2)OCCCCCSC3=C4C=CC(=CC4=NC=C3)C(F)(F)F [EHT 1864] + C[C@@H](Oc1cc(-c2cnn(C3CCNCC3)c2)cnc1N)c1c(Cl)ccc(F)c1Cl [Crizotinib] (partner 1 µM)
Outline: as §1

[7] = compound: C1COCCN1CC2=CC(=O)C(=CO2)OCCCCCSC3=C4C=CC(=CC4=NC=C3)C(F)(F)F [EHT 1864] + C[C@]1(O)C[C@@H](c2nc(-c3ccc4ccc(-c5ccccc5)nc4c3)c3c(N)nccn32)C1 [Linsitinib] (partner 1 µM)
Outline: as §1

[8] = compound: C1COCCN1CC2=CC(=O)C(=CO2)OCCCCCSC3=C4C=CC(=CC4=NC=C3)C(F)(F)F [EHT 1864] + Cc1nc(NC(=O)N2CCC[C@H]2C(N)=O)sc1-c1ccnc(C(C)(C)C(F)(F)F)c1 [Alpelisib] (partner 2 µM)
Outline: as §1

[9] = compound: C1COCCN1CC2=CC(=O)C(=CO2)OCCCCCSC3=C4C=CC(=CC4=NC=C3)C(F)(F)F [EHT 1864] + N=C(N)NC(=N)NCCc1ccccc1 [Phenformin] (partner 250 µM)
Outline: as §1

[10] = compound: C1COCCN1CC2=CC(=O)C(=CO2)OCCCCCSC3=C4C=CC(=CC4=NC=C3)C(F)(F)F [EHT 1864] + Nc1ncn([C@H]2C[C@H](O)[C@@H](CO)O2)c(=O)n1 [Decitabine] (partner 2 µM)
Outline: as §1

[11] = compound: C1COCCN1CC2=CC(=O)C(=CO2)OCCCCCSC3=C4C=CC(=CC4=NC=C3)C(F)(F)F [EHT 1864] + O=C(c1cc(Cc2n[nH]c(=O)c3ccccc23)ccc1F)N1CCN(C(=O)C2CC2)CC1 [Olaparib] (partner 8 µM)
Outline: as §1

[12] = compound: C1COCCN1CC2=CC(=O)C(=CO2)OCCCCCSC3=C4C=CC(=CC4=NC=C3)C(F)(F)F [EHT 1864] + CC(=O)Nc1cccc(-n2c(=O)n(C3CC3)c(=O)c3c(Nc4ccc(I)cc4F)n(C)c(=O)c(C)c32)c1 [Trametinib] (partner 0.02 µM)
Outline: as §1

[13] = compound: C1COCCN1CC2=CC(=O)C(=CO2)OCCCCCSC3=C4C=CC(=CC4=NC=C3)C(F)(F)F [EHT 1864] + CC(=O)c1c(C)c2cnc(Nc3ccc(N4CCNCC4)cn3)nc2n(C2CCCC2)c1=O [Palbociclib] (partner 0.5 µM)
Outline: as §1

[14] = compound: C1COCCN1CC2=CC(=O)C(=CO2)OCCCCCSC3=C4C=CC(=CC4=NC=C3)C(F)(F)F [EHT 1864] + CCNC(=O)c1noc(-c2cc(C(C)C)c(O)cc2O)c1-c1ccc(CN2CCOCC2)cc1 [Luminespib] (partner 0.01 µM)
Outline: as §1

[15] = compound: C1COCCN1CC2=CC(=O)C(=CO2)OCCCCCSC3=C4C=CC(=CC4=NC=C3)C(F)(F)F [EHT 1864] + COc1cccc2cc(-c3nc([C@H]4CC[C@H](C(=O)O)CC4)n4ncnc(N)c34)[nH]c12 [OSI-027] (partner 0.5 µM)
Outline: as §1

[16] = compound: C1COCCN1CC2=CC(=O)C(=CO2)OCCCCCSC3=C4C=CC(=CC4=NC=C3)C(F)(F)F [EHT 1864] + Cc1cc(Nc2cc(N3CCN(C)CC3)nc(Sc3ccc(NC(=O)C4CC4)cc3)n2)n[nH]1 [Tozasertib] (partner 0.1 µM)
Outline: as §1

[17] = compound: C1COCCN1CC2=CC(=O)C(=CO2)OCCCCCSC3=C4C=CC(=CC4=NC=C3)C(F)(F)F [EHT 1864] + Cc1nc(Nc2ncc(C(=O)Nc3c(C)cccc3Cl)s2)cc(N2CCN(CCO)CC2)n1 [Dasatinib] (partner 0.075 µM)
Outline: as §1

[18] = compound: C1COCCN1CC2=CC(=O)C(=CO2)OCCCCCSC3=C4C=CC(=CC4=NC=C3)C(F)(F)F [EHT 1864] + NC(=O)Nc1cc(-c2cccc(F)c2)sc1C(=O)N[C@H]1CCCNC1 [AZD7762] (partner 0.2 µM)
Outline: as §1

[19] = compound: C1COCCN1CC2=CC(=O)C(=CO2)OCCCCCSC3=C4C=CC(=CC4=NC=C3)C(F)(F)F [EHT 1864] + Nc1nc2[nH]cc(CCc3ccc(C(=O)N[C@@H](CCC(=O)O)C(=O)O)cc3)c2c(=O)[nH]1 [Pemetrexed] (partner 0.2 µM)
Outline: as §1

[20] = compound: C1COCCN1CC2=CC(=O)C(=CO2)OCCCCCSC3=C4C=CC(=CC4=NC=C3)C(F)(F)F [EHT 1864] + O=C(CCCCCCC(=O)Nc1ccccc1)NO [Vorinostat] (partner 1 µM)
Outline: as §1

A549
relative viability ([1]; 0.04 µM): 0.88
relative viability ([1]; 0.1265 µM): 0.937
relative viability ([1]; 0.4 µM): 0.921
relative viability ([1]; 1.265 µM): 0.948
relative viability ([1]; 4 µM): 0.883
relative viability ([2]; first compound 0.04 µM): 1.16
relative viability ([2]; first compound 0.1265 µM): 1.2
relative viability ([2]; first compound 0.4 µM): 0.952
relative viability ([2]; first compound 1.265 µM): 1.18
relative viability ([2]; first compound 4 µM): 0.912
relative viability ([3]; first compound 0.04 µM): 0.995
relative viability ([3]; first compound 0.1265 µM): 0.986
relative viability ([3]; first compound 0.4 µM): 0.978
relative viability ([3]; first compound 1.265 µM): 0.815
relative viability ([3]; first compound 4 µM): 0.714
relative viability ([4]; first compound 0.04 µM): 0.927
relative viability ([4]; first compound 0.1265 µM): 0.894
relative viability ([4]; first compound 0.4 µM): 0.996
relative viability ([4]; first compound 1.265 µM): 0.914
relative viability ([4]; first compound 4 µM): 0.625
relative viability ([5]; first compound 0.1265 µM): 0.524
relative viability ([5]; first compound 0.4 µM): 0.416
relative viability ([5]; first compound 1.265 µM): 0.411
relative viability ([5]; first compound 4 µM): 0.461
relative viability ([6]; first compound 0.04 µM): 0.659
relative viability ([6]; first compound 0.1265 µM): 0.739
relative viability ([6]; first compound 0.4 µM): 0.742
relative viability ([6]; first compound 1.265 µM): 0.669
relative viability ([6]; first compound 4 µM): 0.601
relative viability ([7]; first compound 0.04 µM): 0.598
relative viability ([7]; first compound 0.1265 µM): 0.658
relative viability ([7]; first compound 0.4 µM): 0.641
relative viability ([7]; first compound 1.265 µM): 0.599
relative viability ([7]; first compound 4 µM): 0.639
relative viability ([8]; first compound 0.04 µM): 0.637
relative viability ([8]; first compound 0.1265 µM): 0.735
relative viability ([8]; first compound 0.4 µM): 0.694
relative viability ([8]; first compound 1.265 µM): 0.805
relative viability ([8]; first compound 4 µM): 0.712
relative viability ([9]; first compound 0.04 µM): 0.267
relative viability ([9]; first compound 0.1265 µM): 0.14
relative viability ([9]; first compound 0.4 µM): 0.186
relative viability ([9]; first compound 1.265 µM): 0.0995
relative viability ([9]; first compound 4 µM): 0.168
relative viability ([10]; first compound 0.04 µM): 0.263
relative viability ([10]; first compound 0.1265 µM): 0.213
relative viability ([10]; first compound 0.4 µM): 0.257
relative viability ([10]; first compound 1.265 µM): 0.284
relative viability ([10]; first compound 4 µM): 0.323
relative viability ([11]; first compound 0.04 µM): 0.302
relative viability ([11]; first compound 0.1265 µM): 0.299
relative viability ([11]; first compound 0.4 µM): 0.368
relative viability ([11]; first compound 1.265 µM): 0.246
relative viability ([11]; first compound 4 µM): 0.428

NCI-H522
relative viability ([1]; 0.04 µM): 0.845
relative viability ([1]; 0.1265 µM): 0.939
relative viability ([1]; 0.4 µM): 0.996
relative viability ([1]; 1.265 µM): 1
relative viability ([1]; 4 µM): 0.855
relative viability ([12]; first compound 0.04 µM): 0.756
relative viability ([12]; first compound 0.1265 µM): 0.917
relative viability ([12]; first compound 0.4 µM): 0.836
relative viability ([12]; first compound 1.265 µM): 0.722
relative viability ([12]; first compound 4 µM): 0.756
relative viability ([13]; first compound 0.04 µM): 1.11
relative viability ([13]; first compound 0.1265 µM): 1.02
relative viability ([13]; first compound 0.4 µM): 0.948
relative viability ([13]; first compound 1.265 µM): 1
relative viability ([13]; first compound 4 µM): 1.05
relative viability ([14]; first compound 0.04 µM): 1.18
relative viability ([14]; first compound 0.4 µM): 1.23
relative viability ([14]; first compound 1.265 µM): 1.06
relative viability ([14]; first compound 4 µM): 1.22
relative viability ([15]; first compound 0.04 µM): 0.818
relative viability ([15]; first compound 0.1265 µM): 0.631
relative viability ([15]; first compound 0.4 µM): 0.696
relative viability ([15]; first compound 1.265 µM): 0.662
relative viability ([15]; first compound 4 µM): 0.652
relative viability ([16]; first compound 0.04 µM): 0.583
relative viability ([16]; first compound 0.1265 µM): 0.471
relative viability ([16]; first compound 0.4 µM): 0.561
relative viability ([16]; first compound 1.265 µM): 0.503
relative viability ([16]; first compound 4 µM): 0.541
relative viability ([17]; first compound 0.04 µM): 0.919
relative viability ([17]; first compound 0.1265 µM): 0.724
relative viability ([17]; first compound 0.4 µM): 1.04
relative viability ([17]; first compound 1.265 µM): 0.812
relative viability ([17]; first compound 4 µM): 0.875
relative viability ([9]; first compound 0.04 µM): 0.538
relative viability ([9]; first compound 0.1265 µM): 0.613
relative viability ([9]; first compound 0.4 µM): 0.605
relative viability ([9]; first compound 1.265 µM): 0.571
relative viability ([9]; first compound 4 µM): 0.4
relative viability ([18]; first compound 0.04 µM): 0.844
relative viability ([18]; first compound 0.1265 µM): 0.774
relative viability ([18]; first compound 0.4 µM): 0.802
relative viability ([18]; first compound 1.265 µM): 0.973
relative viability ([18]; first compound 4 µM): 1.07
relative viability ([19]; first compound 0.04 µM): 1.29
relative viability ([19]; first compound 0.1265 µM): 0.75
relative viability ([19]; first compound 0.4 µM): 0.977
relative viability ([19]; first compound 1.265 µM): 1.16
relative viability ([19]; first compound 4 µM): 1.18
relative viability ([10]; first compound 0.04 µM): 0.592
relative viability ([10]; first compound 0.1265 µM): 0.685
relative viability ([10]; first compound 0.4 µM): 0.709
relative viability ([10]; first compound 1.265 µM): 0.702
relative viability ([10]; first compound 4 µM): 0.703
relative viability ([20]; first compound 0.04 µM): 0.76
relative viability ([20]; first compound 0.1265 µM): 0.738
relative viability ([20]; first compound 0.4 µM): 0.901
relative viability ([20]; first compound 1.265 µM): 0.893
relative viability ([20]; first compound 4 µM): 1.03
relative viability ([11]; first compound 0.04 µM): 0.719
relative viability ([11]; first compound 0.1265 µM): 0.66
relative viability ([11]; first compound 0.4 µM): 0.63
relative viability ([11]; first compound 1.265 µM): 0.666
relative viability ([11]; first compound 4 µM): 0.734

Source: the supplement of paper PMC10307832
